Assay results taken from patent publication US20190225650A1, “PEPTIDOMIMETIC MACROCYCLES AND USE THEREOF IN REGULATING HIF1ALPHA” (AILERON THERAPEUTICS, INC., priority 2013, published 2019).
Bridge positions count the residues as written; N and C are the ends. Square brackets hold non-standard residues; d marks the D form. Peptide text beside a SMILES is read from it. R8 = C=CCCCCCC[C@@](C)(N)C(=O)O; S5 = C=CCCC[C@](C)(N)C(=O)O; Nle = CCCC[C@H](N)C(=O)O

What follows are compounds tested against T1, flag-tagged HIF1α (AA 786-826) / His6-tagged p300 (AA 323-423) complex (Homo sapiens, UniProt Q09472) (assay: HIF1α p300 displacement assay (TR FRET, +CHAPS)). Conditions: read-out: IC50 (nM) (HIF1α_p300 Displacement + CHAPS).
T1 construct: His6-tagged p300 (AA 323-423); made in house; host or cells: E. coli (pETDuet vector)
Type: binding
Method: The ability of peptides to displace HIF1α c-terminal trans-activation domain from p300-CH was measured by a TR FRET assay. A complex of flag-tagged HIF1α (AA 786-826) and His6-tagged p300 (AA 323-423) was co-expressed using pETDuet vector (EMDMillipore, Bellrica Mass.) and purified from E. coli in the presence of 0.1 mM ZnSO4. The complex was diluted to 300 nM final in complete assay media and competitor peptides were added. The complete assay media contained 150 mM NaCl (Sigma +S5150 or equivalent), 20 mM HEPES pH 7.4 (Boston Bioproducts, Ashland, Mass.; #BB-2076), 7.5 mM CHAPS (Thermo #28300 or equivalent), and 1 mM DTT. Protein and peptide were incubated at room temperature for 1 hour before the addition of anti-Flag-K and anti-6×HIS-D2 (CisBio, Bedford Mass.) HTRF reconstitution buffer (50 mM Phosphate pH 7, 0.8 Potassium Flouride, BSA 0.2%)^1 to a final concentration of 0.5 μM and 4 nM respectively. The reaction continued for an additional two hours at room temperature. The reaction was read on a TECAN F500 plate reader with settings recommended by CisBio. The ratio of donor to acceptor fluorescence was calculated. The resulting data was analyzed with Graphpad Prism 5.0. IC50 values were calculated for both proteins using the One Site Fit-LogIC50 equation and presented in the column “IC50 (nM) (HIF1α_p300 Displacement+CHAPS)” of Table 6. ^1 Cisbio USA, Bedford, Mass.; 61HISDLB (lot 007A), 61FG2KLB (024A), HTRF Buffer (62RB3RDF)

Compound | IC50 [nM]
CCCC[C@H](NC(=O)[C@H](CCC(=O)O)NC(=O)[C@@H](NC(=O)[C@]1(C)CCCC=CCCC[C@](C)(NC(=O)[C@@H](NC(=O)[C@H](CCC(=O)O)NC(=O)[C@H](CCC(=O)O)NC(=O)[C@H](CC(=O)O)NC(=O)[C@@H](NC(=O)[C@H](CC(N)=O)NC(=O)[C@@H](NC(=O)[C@H](CCC(N)=O)NC(=O)[C@]2(C)CCCC=CCCC[C@](C)(NC(=O)[C@H](CC(C)C)NC(=O)[C@H](CCC(=O)O)NC(=O)[C@H](CCC(=O)O)NC(=O)CNC(=O)[C@H](CCC(N)=O)NC(=O)[C@H](CC(C)C)NC(=O)[C@H](CC(C)C)NC(C)=O)C(=O)N[C@@H](CCCNC(=N)N)C(=O)N[C@@H](C)C(=O)N[C@@H](CC(C)C)C(=O)N2)C(C)C)[C@@H](C)CC)C(C)C)C(=O)N[C@@H](CCCC)C(=O)N[C@@H](CO)C(=O)N[C@@H](CC(C)C)C(=O)N1)[C@@H](C)CC)C(=O)NCC(N)=O [SP-304] (Ac-LLQGEEL[S5]RAL[S5]QVNIDEEV[S5][Nle]SL[S5]IE[Nle]G-NH2; staple 8-12, 21-25) | > 700
CCCC[C@@H]1NC(=O)[C@](C)(NC(=O)[C@@H](NC(=O)[C@H](CCC(=O)O)NC(=O)[C@H](CCC(=O)O)NC(=O)[C@H](CC(=O)O)NC(=O)[C@@H](NC(=O)[C@H](CC(N)=O)NC(=O)[C@@H](NC(=O)[C@H](CCC(N)=O)NC(=O)[C@H](CC(=O)O)NC(=O)[C@H](CC(C)C)NC(=O)[C@H](C)NC(=O)[C@H](CCCNC(=N)N)NC(=O)[C@]2(C)CCCC=CCCC[C@](C)(NC(=O)[C@H](CCC(N)=O)NC(=O)[C@H](CC(C)C)NC(=O)[C@H](CC(C)C)NC(C)=O)C(=O)N[C@@H](CCC(=O)O)C(=O)N[C@@H](CCC(=O)O)C(=O)N[C@@H](CC(C)C)C(=O)N2)C(C)C)[C@@H](C)CC)C(C)C)CCCCCCC=CCCC[C@@](C)(C(=O)NCC(N)=O)NC(=O)[C@H](CCC(=O)O)NC(=O)[C@H]([C@@H](C)CC)NC(=O)[C@H](C(C)C)NC(=O)[C@H](CC(C)C)NC(=O)[C@H](CO)NC1=O [SP-314] (Ac-LLQ[S5]EEL[S5]RALDQVNIDEEV[R8][Nle]SLVIE[S5]G-NH2; staple 4-8, 21-28) | > 700
CC[C@H](C)[C@H](NC(=O)[C@H](Cc1ccccc1)NC(C)=O)C(=O)N[C@@H](CC(=O)O)C(=O)N[C@@H](CCC(=O)O)C(=O)N[C@]1(C)CCCCCCC=CCCC[C@@](C)(C(=O)N[C@@H](CCC(=O)O)C(=O)N[C@@H](CCSC)C(=O)N[C@@H](C)C(=O)N[C@@H](C)C(=O)N[C@@H](C)C(N)=O)NC(=O)[C@H](C(C)C)NC(=O)[C@H](CC(C)C)NC(=O)[C@H](CO)NC(=O)[C@H](CCSC)NC(=O)[C@H](CC(C)C)NC(=O)[C@H](C(C)C)NC1=O [SP-179] (Ac-FIDE[R8]VLMSLV[S5]EMAAA-NH2; staple 5-12) | > 700
CC[C@H](C)[C@H](NC(=O)[C@H](Cc1ccccc1)NC(C)=O)C(=O)N[C@@H](CC(=O)O)C(=O)N[C@@H](CCC(=O)O)C(=O)N[C@@]1(C)CCCC=CCCC[C@@](C)(C(=O)N[C@@H](CC(C)C)C(=O)N[C@H](C(=O)N[C@H](C(=O)N[C@@H](CCC(=O)O)C(=O)N[C@@H](CCSC)C(=O)N[C@@H](C)C(N)=O)[C@@H](C)CC)C(C)C)NC(=O)[C@H](CCSC)NC(=O)[C@H](CC(C)C)NC(=O)[C@H](C(C)C)NC1=O [SP-115] (Ac-FIDE[S5]VLM[S5]LVIEMA-NH2; staple 5-9) | > 700
CCCC[C@H](NC(=O)[C@H](CCC(=O)O)NC(=O)[C@@H](NC(=O)[C@@H](NC(=O)[C@H](CC(C)C)NC(=O)[C@H](CO)NC(=O)[C@H](CCCC)NC(=O)[C@H](CC(C)C)NC(=O)[C@@H](NC(=O)[C@H](CCC(=O)O)NC(=O)[C@H](CCC(=O)O)NC(=O)[C@H](CC(=O)O)NC(=O)[C@@H](NC(=O)[C@H](CC(N)=O)NC(=O)[C@@H](NC(=O)[C@H](CCC(N)=O)NC(=O)[C@H](CC(=O)O)NC(=O)[C@H](CC(C)C)NC(=O)[C@H](C)NC(=O)[C@H](CCCNC(=N)N)NC(=O)[C@H](CC(C)C)NC(=O)[C@H](CC(C)C)NC(=O)[C@H](CCC(=O)O)NC(=O)[C@H](CCC(=O)O)NC(=O)CNC(=O)[C@H](CCC(N)=O)NC(=O)[C@H](CC(C)C)NC(=O)[C@H](CC(C)C)NC(C)=O)C(C)C)[C@@H](C)CC)C(C)C)C(C)C)[C@@H](C)CC)C(N)=O [SP-333] (Ac-LLQGEELLRALDQVNIDEEVL[Nle]SLVIE[Nle]-NH2) | 400 to 700
CCCC[C@@H]1NC(=O)[C@](C)(NC(=O)[C@@H](NC(=O)[C@H](CCC(=O)O)NC(=O)[C@H](CCC(=O)O)NC(=O)[C@H](CC(=O)O)NC(=O)[C@@H](NC(=O)[C@H](CC(N)=O)NC(=O)[C@@H](NC(=O)[C@H](CCC(N)=O)NC(=O)[C@H](CC(=O)O)NC(=O)[C@H](CC(C)C)NC(=O)[C@]2(C)CCCC=CCCC[C@](C)(NC(=O)[C@H](CCC(=O)O)NC(=O)CNC(=O)[C@H](CCC(N)=O)NC(=O)[C@H](CC(C)C)NC(=O)[C@H](CC(C)C)NC(C)=O)C(=O)N[C@@H](CC(C)C)C(=O)N[C@@H](CC(C)C)C(=O)N[C@@H](CCCNC(=N)N)C(=O)N2)C(C)C)[C@@H](C)CC)C(C)C)CCCCCCC=CCCC[C@@](C)(C(=O)NCC(N)=O)NC(=O)[C@H](CCC(=O)O)NC(=O)[C@H]([C@@H](C)CC)NC(=O)[C@H](C(C)C)NC(=O)[C@H](CC(C)C)NC(=O)[C@H](CO)NC1=O [SP-315] (Ac-LLQGE[S5]LLR[S5]LDQVNIDEEV[R8][Nle]SLVIE[S5]G-NH2; staple 6-10, 21-28) | > 700
CCCC[C@H](NC(=O)[C@H](CCC(=O)O)NC(=O)[C@@H](NC(=O)[C@@H](NC(=O)[C@H](CC(C)C)NC(=O)[C@]1(C)CCCC=CCCC[C@](C)(NC(=O)[C@H](CCC(=O)O)NC(=O)[C@H](CC(=O)O)NC(=O)[C@@H](NC(=O)[C@H](Cc2ccccc2)NC(C)=O)[C@@H](C)CC)C(=O)N[C@@H](C(C)C)C(=O)N[C@@H](CC(C)C)C(=O)N[C@@H](CCCC)C(=O)N1)C(C)C)[C@@H](C)CC)C(=O)N[C@@H](C)C(=O)N[C@@H](CC(C)C)C(=O)N[C@@H](CCCCN)C(N)=O [SP-132] (Ac-FIDE[S5]VL[Nle][S5]LVIE[Nle]ALK-NH2; staple 5-9) | > 700
CCCC[C@@H]1NC(=O)[C@](C)(NC(=O)[C@@H](NC(=O)[C@H](CCC(=O)O)NC(=O)[C@H](CCC(=O)O)NC(=O)[C@H](CC(=O)O)NC(=O)[C@@H](NC(=O)[C@H](CC(N)=O)NC(=O)[C@@H](NC(=O)[C@]2(C)CCCC=CCCCCCC[C@@](C)(NC(=O)[C@H](CCC(=O)O)NC(=O)CNC(=O)[C@H](CCC(N)=O)NC(=O)[C@H](CC(C)C)NC(=O)[C@H](CC(C)C)NC(C)=O)C(=O)N[C@@H](CC(C)C)C(=O)N[C@@H](CC(C)C)C(=O)N[C@@H](CCCNC(=N)N)C(=O)N[C@@H](C)C(=O)N[C@@H](CC(C)C)C(=O)N[C@@H](CC(=O)O)C(=O)N2)C(C)C)[C@@H](C)CC)C(C)C)CCCCCCC=CCCC[C@@](C)(C(=O)NCC(N)=O)NC(=O)[C@H](CCC(=O)O)NC(=O)[C@H]([C@@H](C)CC)NC(=O)[C@H](C(C)C)NC(=O)[C@H](CC(C)C)NC(=O)[C@H](CO)NC1=O [SP-317] (Ac-LLQGE[R8]LLRALD[S5]VNIDEEV[R8][Nle]SLVIE[S5]G-NH2; staple 6-13, 21-28) | > 700
CC[C@H](C)[C@H](NC(=O)[C@H](Cc1ccccc1)NC(C)=O)C(=O)N[C@@H](CC(=O)O)C(=O)N[C@@H](CCC(=O)O)C(=O)N[C@]1(C)CCCCCCC=CCCC[C@@](C)(C(=O)N[C@@H](CCC(=O)O)C(=O)N[C@@H](CCSC)C(=O)NCC(=O)N[C@@H](CC(C)C)C(=O)N[C@@H](CC(=O)O)C(N)=O)NC(=O)[C@H](C(C)C)NC(=O)[C@H](CC(C)C)NC(=O)[C@H](CO)NC(=O)[C@H](CCSC)NC(=O)[C@H](CC(C)C)NC(=O)[C@H](C(C)C)NC1=O [SP-188] (Ac-FIDE[R8]VLMSLV[S5]EMGLD-NH2; staple 5-12) | > 700

The compounds below were run on HRE-bla ME-180 cells (assay: Reporter gene assay (HRE-bla ME-180 HIF reporter, GeneBLAzer)). Conditions: 18 h; at top conc; 24 hrs normoxia.
Type: cell-based, human
Method in brief: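 A FRET β-lactamase readout of HIF transcription was used. After compound treatment in 0.3% DMSO/media under normoxic conditions, 20 μl of 6× LiveBLAzer-FRET B/G (CCF4-AM) substrate was added. Plates sat 3 hr at room temperature in the dark and were read at 409 Ex/460Em and 409Ex/530Em on a Synergy 2. Inhibition was compared against DMSO vehicle controls, with chetomin as positive control.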

Compound | 18 h Avg % max inhibition at top conc (HIF Rptr-24 hrs normoxia) (μM)
CCCC[C@H](NC(=O)[C@H](CC(C)C)NC(=O)[C@@H](NC(=O)[C@H](CCC(=O)O)NC(=O)[C@H](CCC(=O)O)NC(=O)[C@H](CC(=O)O)NC(=O)[C@@H](NC(=O)[C@H](Cc1ccccc1)NC(C)=O)[C@@H](C)CC)C(C)C)C(=O)N[C@@]1(C)CCCC=CCCC[C@@](C)(C(=O)N[C@@H](CCCC)C(=O)N[C@@H](C)C(=O)N[C@@H](CC(C)C)C(=O)N[C@@H](CC(=O)O)C(=O)N[C@@H](CCCNC(=N)N)C(=O)N[C@H](C(N)=O)[C@@H](C)CC)NC(=O)[C@H](CO)NC(=O)[C@H](C(C)C)NC(=O)[C@H](CC(C)C)NC1=O [SP-53] (Ac-FIDEEVL[Nle][S5]LVS[S5][Nle]ALDRI-NH2; staple 9-13) | +++ (≤25 but <50: +++)

Same assay, conditions: 24 hour normoxia

Compound | EC50 [µM]
CCCC[C@H](NC(=O)[C@H](CC(C)C)NC(=O)[C@@H](NC(=O)[C@H](CCC(=O)O)NC(=O)[C@H](CCC(=O)O)NC(=O)[C@H](CC(=O)O)NC(=O)[C@@H](NC(=O)[C@H](Cc1ccccc1)NC(C)=O)[C@@H](C)CC)C(C)C)C(=O)N[C@@]1(C)CCCC=CCCC[C@@](C)(C(=O)N[C@@H](CCCC)C(=O)N[C@@H](C)C(=O)N[C@@H](CC(C)C)C(=O)N[C@@H](CC(=O)O)C(=O)N[C@@H](CCCNC(=N)N)C(=O)N[C@H](C(N)=O)[C@@H](C)CC)NC(=O)[C@H](CO)NC(=O)[C@H](C(C)C)NC(=O)[C@H](CC(C)C)NC1=O [SP-53] (Ac-FIDEEVL[Nle][S5]LVS[S5][Nle]ALDRI-NH2; staple 9-13) | 5 to 15
